Results on two compounds are retold here after patent US12577341B2, “Copolymer derived from substituted benzopinacol and use of the same as polymerization initiator” (BASF COATINGS GMBH, priority 2020, dated 2026).

Data set [1] in a line: Dissolution of the initiator in the monomer solution (appearance of the resulted mixture). The class given is physicochemical. As for the experimental part: A monomer solution was prepared by mixing 90 g of trimethylolpropane triacrylate (TMPTA) and 2 g of butyl glycol under stirring. 4 g of the copolymeric initiator system was added into the monomer solution and stirred under room temperature for 1 hour.
A monomer solution was prepared by mixing 90 g of TMPTA, 2 g of butyl glycol, 0.24 g of chloroform and 1.76 g solvent naphtha 160/180 under stirring. 1 g of benzopinacol fine powder was added into the monomer solution and stirred under room temperature for 1 hour.
A monomer solution was prepared by mixing 90 g of TMPTA and 10 g of butyl glycol under stirring. 1 g of fine benzopinacol fine powder was added into the monomer solution and stirred under room temperature for 1 hour.
A monomer solution was prepared by mixing 90 g of TMPTA and 10 g of butyl glycol by stirring. 1 g of the compound of formula (I) was added into the monomer solution and stirred under room temperature for 1 hour.

For data set [2] the following is noted: cited from earlier work.
Where [3] appears, read: 1 g in 90 g TMPTA and 10 g butyl glycol, stirred at room temperature for 1 hour.

In the case of `C=CCOC(=O)c1ccc(C(O)(c2ccccc2)C(O)(c2ccccc2)c2ccc(C(=O)OCC=C)cc2)cc1` (stereo not shown) [compound of formula (I), allyloxycarbonyl substituted benzopinacol of formula (I)], the “Appearance of resulted mixture” value in data set [1] (setting [3]) was “transparent liquid with suspended fine particles”.
Take `OC(c1ccccc1)(c1ccccc1)C(O)(c1ccccc1)c1ccccc1` [benzopinacol, 1,1,2,2-tetraphenyl-1,2-ethanediol]: the “Appearance of resulted mixture” value in data set [1] (1 g fine powder in 90 g TMPTA, 2 g butyl glycol, 0.24 g chloroform and 1.76 g solvent naphtha 160/180, stirred at room temperature for 1 hour) was “transparent liquid with suspended fine particles”; in data set [1] (setting [3]), “transparent liquid with suspended fine particles”. Also, the “Solubility in common organic solvents” value in data set [2] is given as “very poor solubility”.
